# Test system: bacteria
# Assay: bacteria growth within chambers of a bacteria culture array with or without ampicillin (FIG. 33)
# Type: cell-based
# Details: chambers that included ampicillin vs chambers without ampicillin; FIG. 33, graph 168
# From the text: Furthermore, the bacteria culture arrays of the present disclosure may be used to assess the effect of drugs on bacteria samples. For instance, single cells of bacteria may be added the chambers of a bacteria culture array, and drugs and/or antimicrobial agents may be added to some or all of the chambers. In other words, single cell bacteria activity may be used to conduct population-based analysis of bacteria samples. With this in mind, FIG. 33 is a graph 168 showing bacteria growth within chambers of a bacteria culture array.
# Visual confirmation of the results shown in the graph 168 were also obtained. FIG. 34 is images […] of the chambers of the bacteria culture array.
compound,measurement,value
CC1(C)S[C@@H]2[C@H](NC(=O)[C@H](N)c3ccccc3)C(=O)N2[C@H]1C(=O)O [ampicillin],bacteria growth within chambers of a bacteria culture array,hindrance to growth

# From patent publication US10787695B2, “Systems and methods for rapidly sensing microbial metabolism” (General Electric Company, priority 2017, dated 2020)
